Data taken from ChEMBL document CHEMBL1275572, “KPC-2-producing Enterobacter cloacae and pseudomonas putida coinfection in a liver transplant recipient” (2009).
Converted amounts (≈) assume the structure as drawn.

How the values were obtained:
Enterobacter cloacae [1] = assay: Antimicrobial activity against Enterobacter cloacae expressing beta-lactamase KPC-2 and SHV-12 obtained from criticall ill liver transplant recipient by broth microdilution method; format: functional
Pseudomonas putida [2] = assay: Antimicrobial activity against Pseudomonas putida expressing beta-lactamase KPC-2 and SHV-12 obtained from criticall ill liver transplant recipient by broth microdilution method; format: functional
Acinetobacter sp. = assay: Antimicrobial activity against Acinetobacter spp.; format: functional, organism-based
Enterobacter cloacae [3] = assay: Antimicrobial activity against Enterobacter cloacae expressing beta-lactamase KPC-2 and SHV-12 obtained from criticall ill liver transplant recipient by broth microdilution method in presence of beta-lactamase inhibitor Tazobactam; format: functional
Pseudomonas putida [4] = assay: Antimicrobial activity against Pseudomonas putida expressing beta-lactamase KPC-2 and SHV-12 obtained from criticall ill liver transplant recipient by broth microdilution method in presence of beta-lactamase inhibitor Tazobactam; format: functional

Description for Pseudomonas aeruginosa: Antimicrobial activity against Pseudomonas aeruginosa

Row | Molecule | MIC (Enterobacter cloacae [1]) | MIC (Pseudomonas putida [2]) | further results
1 | CO[C@@]1(NC(=O)Cc2cccs2)C(=O)N2C(C(=O)O)=C(COC(N)=O)CS[C@@H]21 [CEFOXITIN] | > 32 µg/mL | > 32 µg/mL | –
2 | NCC[C@H](O)C(=O)N[C@@H]1C[C@H](N)[C@@H](O[C@H]2O[C@H](CN)[C@@H](O)[C@H](O)[C@H]2O)[C@H](O)[C@H]1O[C@H]1O[C@H](CO)[C@@H](O)[C@H](N)[C@H]1O [AMIKACIN] | 16 µg/mL (≈ 27.3 µM) | 1 µg/mL (≈ 1.71 µM) | –
3 | CC(C)(O/N=C(\C(=O)N[C@@H]1C(=O)N2C(C(=O)[O-])=C(C[n+]3ccccc3)CS[C@H]12)c1csc(N)n1)C(=O)O [CEFTAZIDIME] | > 32 µg/mL | > 32 µg/mL | –
4 | CO/N=C(\C(=O)N[C@@H]1C(=O)N2C(C(=O)[O-])=C(C[N+]3(C)CCCC3)CS[C@H]12)c1csc(N)n1 | – | > 32 µg/mL | –
5 | C[C@@H](O)[C@H]1C(=O)N2C(C(=O)O)=C(S[C@@H]3CN[C@H](C(=O)Nc4cccc(C(=O)O)c4)C3)[C@H](C)[C@H]12 | > 8 µg/mL | > 8 µg/mL | –
6 | NC[C@H]1O[C@H](O[C@H]2[C@H](O)[C@@H](O[C@H]3O[C@H](CO)[C@@H](O)[C@H](N)[C@H]3O)[C@H](N)C[C@@H]2N)[C@H](N)C[C@@H]1O [TOBRAMYCIN] | > 8 µg/mL | > 8 µg/mL | –
7 | C[C@@H](O)[C@H]1C(=O)N2C(C(=O)O)=C(SCCNC=N)C[C@H]12 [IMIPENEM ANHYDROUS] | > 4 µg/mL | > 4 µg/mL | –
8 | CO/N=C(\C(=O)N[C@@H]1C(=O)N2C(C(=O)O)=C(CSc3nc(=O)c(O)nn3C)CS[C@H]12)c1csc(N)n1 [CEFTRIAXONE] | > 32 µg/mL | > 32 µg/mL | –
9 | COLISTIN | > 16 µg/mL | 2 µg/mL | MIC (Acinetobacter sp.): > 16 µg/mL; MIC (Pseudomonas aeruginosa): > 16 µg/mL
10 | GENTAMICIN | > 8 µg/mL | > 8 µg/mL | –
11 | C[C@@H](O)[C@H]1C(=O)N2C(C(=O)O)=C(S[C@@H]3CN[C@H](C(=O)N(C)C)C3)[C@H](C)[C@H]12 [MEROPENEM] | > 4 µg/mL | > 4 µg/mL | –
12 | CCN1CCN(C(=O)N[C@@H](C(=O)N[C@@H]2C(=O)N3[C@@H]2SC(C)(C)[C@@H]3C(=O)O)c2ccccc2)C(=O)C1=O [PIPERACILLIN] | – | – | MIC (Enterobacter cloacae [3]): > 128 µg/mL; MIC (Pseudomonas putida [4]): > 128 µg/mL
13 | C[C@H]1COc2c(N3CCN(C)CC3)c(F)cc3c(=O)c(C(=O)O)cn1c23.C[C@H]1COc2c(N3CCN(C)CC3)c(F)cc3c(=O)c(C(=O)O)cn1c23.O [LEVOFLOXACIN] | 2 µg/mL | > 16 µg/mL | –
